Measurements: patent US10626112B2, “Heterocyclic sulfonamide derivative and medicine comprising same” (EA PHARMA CO., LTD., priority 2014, dated 2020)

Molecular target: human TRPA1 (Homo sapiens (Human), UniProt O75762)
Experiment: Measurement of TRPA1 antagonist activity (1): intracellular calcium increase
Assay type: cell-based
Conditions: 293T cells transfected with human TRPA1 expression plasmid; allylisothiocyanate 20 μM stimulation; intracellular calcium fluorescence; read-out: hTRPA1 IC50
In short: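 Calcium-flux readout of TRPA1 block: compound given 10 min before 20 μM (final) allylisothiocyanate, fluorescence tracked 5 min. Cells were 293T transiently expressing human TRPA1, dye-loaded 1 hr in HBSS, 20 mM HEPES, pH 7.2. Inhibition scaled between agonist-only and buffer-only responses; IC50 by sigmoid fitting.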

Sequence of human TRPA1 (O75762 whole entry): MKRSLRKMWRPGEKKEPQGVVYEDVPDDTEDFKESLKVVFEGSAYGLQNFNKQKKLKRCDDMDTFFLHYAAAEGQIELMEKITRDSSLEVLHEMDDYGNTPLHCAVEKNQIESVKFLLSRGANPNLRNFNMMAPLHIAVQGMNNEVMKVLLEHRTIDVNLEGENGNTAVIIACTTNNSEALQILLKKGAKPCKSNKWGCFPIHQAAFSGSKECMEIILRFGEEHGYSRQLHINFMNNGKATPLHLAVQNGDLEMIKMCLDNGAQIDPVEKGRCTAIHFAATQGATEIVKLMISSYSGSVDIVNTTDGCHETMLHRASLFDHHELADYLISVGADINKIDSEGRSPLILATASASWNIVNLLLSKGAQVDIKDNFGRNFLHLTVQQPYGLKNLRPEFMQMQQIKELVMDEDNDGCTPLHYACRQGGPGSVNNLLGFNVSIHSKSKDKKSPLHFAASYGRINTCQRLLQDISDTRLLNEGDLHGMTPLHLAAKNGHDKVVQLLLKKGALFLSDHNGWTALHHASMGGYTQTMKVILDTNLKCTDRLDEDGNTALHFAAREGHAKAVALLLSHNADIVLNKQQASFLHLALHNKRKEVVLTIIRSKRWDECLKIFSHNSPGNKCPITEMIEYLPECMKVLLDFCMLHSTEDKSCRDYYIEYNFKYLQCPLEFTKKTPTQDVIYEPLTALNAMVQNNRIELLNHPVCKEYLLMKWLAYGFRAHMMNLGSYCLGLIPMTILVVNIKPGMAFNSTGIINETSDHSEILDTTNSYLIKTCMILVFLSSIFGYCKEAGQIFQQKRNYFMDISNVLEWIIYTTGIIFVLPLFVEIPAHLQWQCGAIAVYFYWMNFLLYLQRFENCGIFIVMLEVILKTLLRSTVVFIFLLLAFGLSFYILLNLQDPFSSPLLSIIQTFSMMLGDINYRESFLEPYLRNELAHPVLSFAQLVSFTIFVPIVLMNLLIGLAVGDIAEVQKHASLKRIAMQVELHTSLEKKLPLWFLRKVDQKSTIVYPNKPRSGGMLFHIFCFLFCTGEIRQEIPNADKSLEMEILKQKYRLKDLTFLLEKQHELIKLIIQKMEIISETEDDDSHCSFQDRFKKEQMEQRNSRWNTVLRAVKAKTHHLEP

Row | SMILES | IC50 [nM]
1 | C[C@H](NS(=O)(=O)c1cc2ccccc2o1)C(=O)NCc1cccc(-c2ccc(C(F)(F)F)cn2)c1 [Example 102, (2S)-2-(benzofuran-2-ylsulfonylamino)-N-[[3-[5-(trifluoromethyl)-2-pyridyl]phenyl]methyl]propanamide] | 28
2 | O=C(NCc1cc(-c2ccc(OC(F)(F)F)cc2)ncn1)[C@@H]1CCCN1S(=O)(=O)c1cc2ccccc2o1 [Example 203, (2S)-1-(benzofuran-2-ylsulfonyl)-N-[[6-[4-(trifluoromethoxy)phenyl]-pyrimidin-4-yl]methyl]pyrrolidine-2-carboxamide] | 3.2
3 | CC(C)(C)OC(=O)Nc1ccccc1-c1cc(CNC(=O)[C@@H]2CCCN2S(=O)(=O)c2cc3ccccc3o2)ccn1 [Example 276, N-[2-[4-[[[(2S)-1-(benzofuran-2-ylsulfonyl)pyrrolidine-2-carbonyl]amino]methyl]-2-pyridyl]phenyl]carbamic acid tert-butyl] | 150
4 | O=C(NCc1cccc(-c2ccc(C(F)(F)F)cn2)c1)[C@@H]1CCCN1S(=O)(=O)c1cc2cc(F)ccc2o1 [Example 89, (2S)-1-(5-fluorobenzofuran-2-yl)sulfonyl-N-[[3-[5-(trifluoromethyl)-2-pyridyl]phenyl]methyl]pyrrolidine-2-carboxamide] | 0.38
5 | O=C(NCc1cncc(-c2ccc(C(F)(F)F)nc2)c1)[C@@H]1CCCN1S(=O)(=O)c1cc2cc(F)ccc2o1 [Example 140, (2S)-1-(5-fluorobenzofuran-2-yl)sulfonyl-N-[[5-[6-(trifluoromethyl)-3-pyridyl]-3-pyridyl]methyl]pyrrolidine-2-carboxamide] | 2.2
6 | O=C(NCc1cc(-c2ccc(C(F)(F)F)cn2)cnn1)[C@@H]1CCCN1S(=O)(=O)c1cc2ccccc2o1 [Example 212, (2S)-1-(benzofuran-2-ylsulfonyl)-N-[[5-[5-(trifluoromethyl)-2-pyridyl]pyridazin-3-yl]methyl]pyrrolidine-2-carboxamide] | 27
7 | O=C(NCc1ccnc(-c2ccc(C(F)(F)F)cc2)c1)[C@@H]1CCCN1S(=O)(=O)c1cc2ccc(F)cc2o1 [Example 220, (2S)-1-(6-fluorobenzofuran-2-yl)sulfonyl-N-[[2-[4-(trifluoromethyl)phenyl]-4-pyridyl]methyl]pyrrolidine-2-carboxamide] | 54
8 | O=C(NCc1ccnc(-c2cc(Cl)cs2)c1)[C@@H]1CCCN1S(=O)(=O)c1cc2ccccc2o1 [Example 277, (2S)-1-(benzofuran-2-ylsulfonyl)-N-[[2-(4-chloro-2-thienyl)-4-pyridyl]methyl]pyrrolidine-2-carboxamide] | 89
9 | O=C(NCc1cccc(OCc2cccnc2)c1)[C@@H]1CCCN1S(=O)(=O)c1cc2cc(F)ccc2o1 [Example 14, (2S)-1-(5-fluorobenzofuran-2-yl)sulfonyl-N-[[3-(3-pyridylmethoxy)phenyl]-methyl]pyrrolidine-2-carboxamide] | 20
10 | O=C(NCc1cccc(OCc2ccc(C(F)(F)F)nc2)c1)[C@@H]1CCCN1S(=O)(=O)c1cc2ccccc2o1 [Example 8, (2S)-1-(benzofuran-2-ylsulfonyl)-N-[[3-[[6-(trifluoromethyl)-3-pyridyl]methoxy]phenyl]-methyl]pyrrolidine-2-carboxamide] | 6.2
11 | O=C(NCc1cc(-c2ccc(C(F)(F)F)cn2)ccn1)[C@@H]1CCCCN1S(=O)(=O)c1cc2cc(F)ccc2o1 [Example 261, (2S)-1-(5-fluorobenzofuran-2-yl)sulfonyl-N-[[4-[5-(trifluoromethyl)-2-pyridyl]-2-pyridyl]methyl]piperidine-2-carboxamide] | 37
12 | O=C(NCc1ccc(O)c(-c2ccc(C(F)(F)F)cn2)c1)[C@@H]1CCCN1S(=O)(=O)c1cc2ccccc2o1 [Example 193, (2S)-1-(benzofuran-2-ylsulfonyl)-N-[[4-hydroxy-3-[5-(trifluoromethyl)-2-pyridyl]phenyl]methyl]pyrrolidine-2-carboxamide] | 2.2
13 | O=C(NCc1cc(-c2ccc(C(F)(F)F)cn2)ccn1)[C@@H]1CC(F)(F)CN1S(=O)(=O)c1cc2cc(F)ccc2o1 [Example 229, (2S)-4,4-difluoro-1-(5-fluorobenzofuran-2-yl)sulfonyl-N-[[4-[5-(trifluoromethyl)-2-pyridyl]-2-pyridyl]methyl]pyrrolidine-2-carboxamide] | 12
14 | O=C(NCc1cc(-c2ncc(C(F)(F)F)cn2)ccn1)[C@@H]1CCCN1S(=O)(=O)c1cc2ccccc2o1 [Example 192, (2S)-1-(benzofuran-2-ylsulfonyl)-N-[[4-[5-(trifluoromethyl)pyrimidin-2-yl]-2-pyridyl]methyl]pyrrolidine-2-carboxamide] | 22
15 | Cc1ccc(COc2cccc(CNC(=O)[C@@H]3CCCN3S(=O)(=O)c3cc4cc(F)ccc4o3)c2)cn1 [Example 19, (2S)-1-(5-fluorobenzofuran-2-yl)sulfonyl-N-[[3-[(6-methyl-3-pyridyl)methoxy]phenyl]-methyl]pyrrolidine-2-carboxamide] | 14
16 | O=C(NCc1cccc(OCc2ccc(C(F)(F)F)cc2)c1)[C@@H]1CC(F)(F)CN1S(=O)(=O)c1cc2ccccc2o1 [Example 47, (2S)-1-(benzofuran-2-ylsulfonyl)-4,4-difluoro-N-[[3-[[4-(trifluoromethyl)phenyl]methoxy]-phenyl]methyl]pyrrolidine-2-carboxamide] | 24
17 | O=C(NCc1ccnc(-c2cccc(F)c2)c1)[C@@H]1CCCN1S(=O)(=O)c1cc2ccccc2o1 [Example 113, (2S)-1-(benzofuran-2-ylsulfonyl)-N-[[2-(3-fluorophenyl)-4-pyridyl]methyl]pyrrolidine-2-carboxamide] | 120
18 | O=C(NCc1ccnc(-c2ccc(C(F)(F)F)cc2)c1)[C@@H]1CCCN1S(=O)(=O)c1cc2cccc(F)c2o1 [Example 219, (2S)-1-(7-fluorobenzofuran-2-yl)sulfonyl-N-[[2-[4-(trifluoromethyl)phenyl]-4-pyridyl]methyl]pyrrolidine-2-carboxamide] | 390
19 | O=C(NCc1ccc(COc2ccccc2)cc1)[C@@H]1CCCN1S(=O)(=O)c1cc2ccccc2o1 [Example 58, (2S)-1-(benzofuran-2-ylsulfonyl)-N-[[4-(phenoxymethyl)phenyl]methyl]-pyrrolidine-2-carboxamide] | 430
20 | O=C(NCc1cccc(-c2ccc(F)cc2)c1)[C@@H]1CCCN1S(=O)(=O)c1cc2cc(F)ccc2o1 [Example 155, (2S)-1-(5-fluorobenzofuran-2-yl)sulfonyl-N-[[3-(4-fluorophenyl)phenyl]methyl]-pyrrolidine-2-carboxamide] | 4
21 | O=C(NCc1cccc([S+]([O-])c2ccc(C(F)(F)F)cc2)c1)[C@@H]1CCCN1S(=O)(=O)c1cc2ccccc2o1 (stereo partly drawn) [Example 323, (2S)-1-(benzofuran-2-ylsulfonyl)-N-[[3-[4-(trifluoromethyl)phenyl]sulfinylphenyl]methyl]pyrrolidine-2-carboxamide] | 200
22 | O=C(NCc1ccc(O)c(-c2cnc(C(F)(F)F)cn2)c1)[C@@H]1CCCN1S(=O)(=O)c1cc2ccccc2o1 [Example 214, (2S)-1-(benzofuran-2-ylsulfonyl)-N-[[4-hydroxy-3-[5-(trifluoromethyl)-pyrazin-2-yl]phenyl]-methyl]pyrrolidine-2-carboxamide] | 13
23 | O=C(NCc1cc(-c2ccc(C(F)(F)F)cn2)ccn1)[C@@H]1C[C@@H]2C[C@@H]2N1S(=O)(=O)c1cc2cc(F)ccc2o1 [Example 259, (1S,3S,5S)-4-(5-fluorobenzofuran-2-yl)sulfonyl-N-[[4-[5-(trifluoromethyl)-2-pyridyl]-2-pyridyl]methyl]-4-azabicyclo[3.1.0]hexane-3-carboxamide] | 1.2
24 | O=C(NCc1cc(-c2cnc(C(F)(F)F)nc2)ccn1)[C@@H]1CCCN1S(=O)(=O)c1cc2ccccc2o1 [Example 200, (2S)-1-(benzofuran-2-ylsulfonyl)-N-[[4-[2-(trifluoromethyl)pyrimidin-5-yl]-2-pyridyl]methyl]pyrrolidine-2-carboxamide] | 16
25 | O=C(NCc1ccc(Oc2cccc(C(F)(F)F)c2)cc1)[C@@H]1CCCN1S(=O)(=O)c1cc2cnccc2o1 [Example 268, (2S)-1-furo[3,2-c]pyridin-2-ylsulfonyl-N-[[4-[3-(trifluoromethyl)phenoxy]-phenyl]methyl]pyrrolidine-2-carboxamide] | 29
26 | O=C(NCc1ccc(-c2ccc(F)cc2)cc1)[C@@H]1CCCN1S(=O)(=O)c1cc2ccccc2o1 [Example 168, (2S)-1-(benzofuran-2-ylsulfonyl)-N-[[4-(4-fluorophenyl)phenyl]methyl]-pyrrolidine-2-carboxamide] | 180
27 | O=C(NCc1cccc([S+]([O-])Cc2ccc(C(F)(F)F)cc2)c1)[C@@H]1CCCN1S(=O)(=O)c1cc2ccccc2o1 (stereo partly drawn) [Example 316, (2S)-1-(benzofuran-2-ylsulfonyl)-N-[[3-[[4-(trifluoromethyl)phenyl]methylsulfinyl]phenyl]methyl]pyrrolidine-2-carboxamide] | 230
28 | O=C(NCc1cccc(OCc2ccc(C(F)(F)F)cc2)c1)[C@@H]1CCCN1S(=O)(=O)c1cc2ccccc2o1 [Example 38, (2S)-1-(benzofuran-2-ylsulfonyl)-N-[[3-[[4-(trifluoromethyl)phenyl]methoxy]-phenyl]methyl]pyrrolidine-2-carboxamide] | 9.1
29 | O=C(NCc1cc(-c2ccc(C(F)(F)F)nc2)ncn1)[C@@H]1CCCN1S(=O)(=O)c1cc2cc(F)ccc2o1 [Example 224, (2S)-1-(5-fluorobenzofuran-2-yl)sulfonyl-N-[[6-[6-(trifluoromethyl)-3-pyridyl]pyrimidin-4-yl]methyl]pyrrolidine-2-carboxamide] | 0.66
30 | CNC(=O)c1ccc(-c2cccc(CNC(=O)[C@@H]3CCCN3S(=O)(=O)c3cc4cc(F)ccc4o3)c2)cn1 [Example 162, 5-[3-[[[(2S)-1-(5-fluorobenzofuran-2-yl)sulfonylpyrrolidine-2-carbonyl]amino]methyl]phenyl]-N-methyl-pyridine-2-carboxamide] | 51
